Literature values, collected in patent publication US20030055013A1, “HCV combination therapy” (SCHERING CORPORATION, priority 2001, published 2003).

Experiments:
[1] = per 1 mg (Goodman & Gilman)
HIV patients = conditions: higher doses, PO, Phase I/II clinical trials (PharmaProjects)
[2] = monotherapy, patients with chronic hepatitis C, prior studies
[3] = test system: chronic childhood cholestasis; conditions: 20-25 IU/kg/day (Sokool et al.)
[4] = stored between 2° and 8° C. and used within 24 hours of reconstitution

| Molecule | potency of 1 mg in IU of Vitamin E [1] | other results |
| --- | --- | --- |
| CC(=O)Oc1c(C)c(C)c2c(c1C)CC[C@@](C)(CCC[C@H](C)CCC[C@H](C)CCCC(C)C)O2 (racemic) [dl-alpha tocopheryl acetate] | one | – |
| CC(C)(Sc1cc(C(C)(C)C)c(O)c(C(C)(C)C)c1)Sc1cc(C(C)(C)C)c(O)c(C(C)(C)C)c1 [Panavia, 4,4′-isopropylidenedithiobis-2,6-di-t-butylphenol] | – | CD4 levels (HIV patients): stablized or slightly stabilized |
| NC(=O)c1ncn([C@@H]2O[C@H](CO)[C@@H](O)[C@H]2O)n1 [Ribavirin, ribavirin] | – | patients with reduction in hemoglobin of greater than 4 g/dL [2]: 15.7 % of patients |
| Cc1c(C)c2c(c(C)c1O)CC[C@@](C)(CCC[C@H](C)CCC[C@H](C)CCCC(C)C)O2 [d-alpha tocopherol] | 1.49 IU | – |
| CC(=O)Oc1c(C)c(C)c2c(c1C)CC[C@@](C)(CCC[C@H](C)CCC[C@H](C)CCCC(C)C)O2 [d-alpha tocopheryl acetate] | 1.36 IU | – |
| Cc1c(C)c2c(c(C)c1OC(=O)CCC(=O)O)CC[C@@](C)(CCC[C@H](C)CCC[C@H](C)CCCC(C)C)O2 [d-alpha tocopheryl succinate] | 1.21 IU | – |
| d-alpha-tocopheryl polyethylene glycol 1000 succinate [Vitamin E-TPGS] | – | safety and efficacy in chronic childhood cholestasis [3]: safe and effective |
| interferon alfa | – | stability of reconstituted aqueous solutions [4]: stable |
